Reference: US20130344139A1, “METHOD OF REDUCING CONTACT LENS INTOLERANCE WITH NON-DRYING ANTIHISTAMINES” (priority 2005, published 2013)
Blank lines part the entries; values can stand above or below the compound they belong to.

Experiments:
[1] = biological target: human histamine H1 receptor (Homo sapiens, UniProt P35367); assay: H1 receptor potency: inhibition of histamine stimulation in CHO-K1 H1 cells
From the text: (§1) C6 rat glioma and CHO-K1 (Chinese hamster ovary) cells were obtained from the American Type Culture Collection (ATCC, Manassas, Va.). […] Recombinant cell lines stably expressing independently each of the five human muscarinic receptors (M1, M2, M3, M4 or M5) were established by transfecting C6 rat glioma cells with the plasmid pcDNA3.1(+) containing the DNA sequence encoding the muscarinic receptor subtypes. Moreover, two of the muscarinic receptor subtypes (M2 and M4) that signal through the Gαi protein were expressed in C6 cells that also expressed a functional chimeric Gq/i protein allowing these receptors to signal via calcium mobilization.
Dose response curves were generated.

[2] = biological target: muscarinic receptors (M1-M5); assay: Muscarinic receptor signaling, statements for M1-M5 together; conditions: for IC50 at muscarinic receptors (in words): lack of anticholinergic properties; for inhibition of muscarinic receptor signaling (in words): stimulation with 500 nM acetylcholine
From the text: as §1

C57BL6 mice = assay: Effect of topical epinastine and olopatadine on tear volume in mice (phenol red cotton thread); type: in vivo, mouse; conditions: for tear volume compared with untreated group: olopatadine: 15 min and 45 min (P<0.05); for overall effect on tear volume / tear secretion (conclusion): topical, mice
Protocol: After two and four days of treatment, tear volume measurements were made with a phenol red impregnated cotton thread (Zone-Quick, Menicon, San Mateo, Calif.) 15, 45, 90, 120 and 240 min after the last instillation of the drug. A baseline tear measurement was performed before initiation of drug therapy. The untreated group had tear volume measurements done at the same time points. The length of tear wetting on the cotton thread was measured with a Nikon SMZ1500 microscope using MetaVue© software. A standard curve of cotton thread uptake was made using a glass micropipette with a known volume of a basic solution. Mouse tear volumes were calculated using regression analysis calculated by Microsoft® Excel. ANOVA with Tukey's Multiple Comparison Test was used for statistical analysis using GraphPad Prism® software.

[3] = biological target: endogenous M3 receptor (1321N1) (Homo sapiens, UniProt P20309)
[4] = biological target: T1, human muscarinic receptor M4 (Homo sapiens, UniProt P08173); assay: Muscarinic receptor potency, C6 cells expressing recombinant M4 (chimeric Gq/i)
T1 sequence (P08173 1-479): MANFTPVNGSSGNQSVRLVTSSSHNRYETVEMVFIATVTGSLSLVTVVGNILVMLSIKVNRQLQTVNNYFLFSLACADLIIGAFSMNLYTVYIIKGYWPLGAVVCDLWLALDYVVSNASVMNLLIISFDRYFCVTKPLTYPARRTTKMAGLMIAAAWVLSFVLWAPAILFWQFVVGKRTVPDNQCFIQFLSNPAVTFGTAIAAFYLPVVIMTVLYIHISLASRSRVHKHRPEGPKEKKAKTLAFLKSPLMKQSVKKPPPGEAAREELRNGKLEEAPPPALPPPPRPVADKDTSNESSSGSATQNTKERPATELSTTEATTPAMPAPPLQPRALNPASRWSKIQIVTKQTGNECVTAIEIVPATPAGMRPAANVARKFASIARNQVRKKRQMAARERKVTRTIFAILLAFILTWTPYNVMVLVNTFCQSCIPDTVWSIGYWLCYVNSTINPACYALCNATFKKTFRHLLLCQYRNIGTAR
From the text: as §1

[5] = biological target: T2, human muscarinic receptor M1 (Homo sapiens, UniProt P11229); assay: cell-based
T2 sequence (P11229 1-460): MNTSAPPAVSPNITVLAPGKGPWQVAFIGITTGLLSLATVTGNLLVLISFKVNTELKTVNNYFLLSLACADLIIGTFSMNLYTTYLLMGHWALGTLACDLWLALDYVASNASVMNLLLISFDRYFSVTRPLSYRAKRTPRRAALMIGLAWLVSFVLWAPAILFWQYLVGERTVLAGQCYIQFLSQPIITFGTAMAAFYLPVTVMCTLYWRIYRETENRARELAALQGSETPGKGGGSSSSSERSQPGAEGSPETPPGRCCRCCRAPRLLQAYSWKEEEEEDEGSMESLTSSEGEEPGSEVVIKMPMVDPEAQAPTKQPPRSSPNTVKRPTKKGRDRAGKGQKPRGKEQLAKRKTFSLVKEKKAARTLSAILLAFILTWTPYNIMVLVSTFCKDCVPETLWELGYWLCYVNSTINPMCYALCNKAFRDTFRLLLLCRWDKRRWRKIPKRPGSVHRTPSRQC
From the text: as §1

[6] = biological target: human muscarinic receptor M3 (Homo sapiens, UniProt P20309); assay: Muscarinic receptor potency, C6 cells expressing recombinant M3
From the text: as §1

[7] = biological target: T3, human muscarinic receptor M2 (Homo sapiens, UniProt P08172); assay: Muscarinic receptor potency, C6 cells expressing recombinant M2 (chimeric Gq/i)
T3 sequence (P08172 1-466): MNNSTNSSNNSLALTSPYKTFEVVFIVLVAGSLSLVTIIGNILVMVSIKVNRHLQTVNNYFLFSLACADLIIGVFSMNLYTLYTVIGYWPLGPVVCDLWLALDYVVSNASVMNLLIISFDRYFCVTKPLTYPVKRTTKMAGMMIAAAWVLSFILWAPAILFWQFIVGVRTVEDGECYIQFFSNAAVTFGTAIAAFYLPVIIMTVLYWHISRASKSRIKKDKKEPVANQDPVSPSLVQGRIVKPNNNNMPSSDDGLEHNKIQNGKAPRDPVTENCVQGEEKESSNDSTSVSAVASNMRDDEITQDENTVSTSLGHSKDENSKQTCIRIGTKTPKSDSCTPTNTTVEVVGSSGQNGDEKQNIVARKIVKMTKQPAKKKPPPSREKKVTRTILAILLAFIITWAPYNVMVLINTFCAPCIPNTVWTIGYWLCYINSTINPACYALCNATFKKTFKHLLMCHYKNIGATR
From the text: as §1

[8] = biological target: T4, human muscarinic receptor M5 (Homo sapiens, UniProt P08912); assay: Muscarinic receptor potency, C6 cells expressing recombinant M5
T4 sequence (P08912 1-532): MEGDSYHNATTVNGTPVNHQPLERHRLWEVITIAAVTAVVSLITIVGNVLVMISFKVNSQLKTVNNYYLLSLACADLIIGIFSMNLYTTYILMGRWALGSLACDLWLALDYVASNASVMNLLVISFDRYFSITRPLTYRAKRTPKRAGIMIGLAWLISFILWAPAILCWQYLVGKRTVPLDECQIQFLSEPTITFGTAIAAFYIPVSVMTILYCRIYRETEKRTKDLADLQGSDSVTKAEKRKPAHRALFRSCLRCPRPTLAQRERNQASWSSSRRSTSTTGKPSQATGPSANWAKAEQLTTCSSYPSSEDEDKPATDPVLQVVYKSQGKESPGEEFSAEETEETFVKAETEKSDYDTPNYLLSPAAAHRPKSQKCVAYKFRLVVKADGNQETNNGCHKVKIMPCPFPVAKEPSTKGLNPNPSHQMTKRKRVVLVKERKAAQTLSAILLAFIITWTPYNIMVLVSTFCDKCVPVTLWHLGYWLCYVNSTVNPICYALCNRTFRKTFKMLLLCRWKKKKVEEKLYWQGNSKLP
From the text: as §1

healthy individuals = conditions: systemic antihistamines; increased corneal and conjunctival staining, decreased TFBUT, increased ocular discomfort; cited from earlier work
human subjects = assay: Ocular drying effect of topical epinastine and systemic loratadine, crossover study (fluorophotometry, staining, TFBUT); conditions: after 4 days of treatment
allergic conjunctivitis = conditions: in vivo; cited from earlier work
[9] = system: contact lens-wearing subjects; assay: Effect of topical epinastine on contact lens-wearing, contact lens intolerant subjects; type: in vivo
From the text: This was a multi-center, open-label, randomized study that compared (a) epinastine 0.05% ophthalmic solution (ELESTAT®, Inspire Pharmaceuticals, Inc., Durham, N.C.) plus rewetting drops (Walgreens Rewetting Drops, Walgreens, Deerfield Ill.) with (b) rewetting drops alone. The subjects wore contact lenses, but were contact lens intolerant. The study started during the spring allergy season because seasonal allergic conjunctivitis may exacerbate the symptoms of contact lens intolerance.
146 subjects had 3 clinic visits over a 2-week period. The first was the screening visit to determine eligibility. Following that, subjects completed a daily diary card to assess compliance and capture baseline values during a 5-7 day run-in period with rewetting drops. At the next visit, each subject was dispensed a new pair of contact lenses and randomly assigned to receive either (a) epinastine 0.05% ophthalmic solution BID (twice a day) plus rewetting drops (75 subjects), or (b) rewetting drops only as needed, but at least twice a day (71 subjects), for a 5-7 day treatment period. During the treatment period, subjects recorded the length of time that contact lens wear was comfortable, the total time of wear, ocular itch, overall ocular comfort, and use of rewetting drops. Subjects receiving epinastine were instructed to remove contact lenses prior to instillation, allow at least 10 minutes before reinsertion, and allow 15 minutes before administering rewetting drops. Each instillation was to occur 8-12 hours after the previous one, with the evening application coming after removal of lenses for the day. The final visit came after the 5-7 day treatment period and allowed collection of the data and unused study medication.
Ocular comfort was scored on a scale of 0-4, with 0=very comfortable, 1=somewhat comfortable, 2=mildly uncomfortable, 3=moderately uncomfortable, and 4=very uncomfortable.
Ocular itch was scored on a scale of 0-4, with 0=none, 1=mild, 2=moderate, 3=severe, and 4=extremely severe.
Baseline values presented are the average of all entries recorded during the run-in phase of the study. P values are based on an ANCOVA model that included the treatment, the site, and the baseline value. Values for Day 1 are not included in the analysis for contact lens wear time, ocular itching, ocular comfort, and rewetting drop usage because they were a mixture of run-in and treatment period values.

[10] = average during treatment period

Chain of human histamine H1 receptor (P35367 whole entry): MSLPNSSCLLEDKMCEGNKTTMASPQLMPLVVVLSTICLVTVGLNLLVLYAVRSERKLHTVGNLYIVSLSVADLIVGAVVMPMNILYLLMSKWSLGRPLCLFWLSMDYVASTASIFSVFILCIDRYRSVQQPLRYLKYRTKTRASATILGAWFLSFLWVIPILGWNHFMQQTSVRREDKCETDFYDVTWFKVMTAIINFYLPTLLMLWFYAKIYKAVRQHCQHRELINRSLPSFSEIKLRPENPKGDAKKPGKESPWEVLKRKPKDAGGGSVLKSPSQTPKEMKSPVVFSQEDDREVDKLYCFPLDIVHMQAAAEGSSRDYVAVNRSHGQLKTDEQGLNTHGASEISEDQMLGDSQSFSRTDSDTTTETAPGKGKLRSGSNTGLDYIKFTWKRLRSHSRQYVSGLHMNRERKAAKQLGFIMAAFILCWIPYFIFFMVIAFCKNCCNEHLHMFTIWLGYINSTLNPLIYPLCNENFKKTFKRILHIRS
Chain of endogenous M3 receptor (1321N1) (P20309 whole entry): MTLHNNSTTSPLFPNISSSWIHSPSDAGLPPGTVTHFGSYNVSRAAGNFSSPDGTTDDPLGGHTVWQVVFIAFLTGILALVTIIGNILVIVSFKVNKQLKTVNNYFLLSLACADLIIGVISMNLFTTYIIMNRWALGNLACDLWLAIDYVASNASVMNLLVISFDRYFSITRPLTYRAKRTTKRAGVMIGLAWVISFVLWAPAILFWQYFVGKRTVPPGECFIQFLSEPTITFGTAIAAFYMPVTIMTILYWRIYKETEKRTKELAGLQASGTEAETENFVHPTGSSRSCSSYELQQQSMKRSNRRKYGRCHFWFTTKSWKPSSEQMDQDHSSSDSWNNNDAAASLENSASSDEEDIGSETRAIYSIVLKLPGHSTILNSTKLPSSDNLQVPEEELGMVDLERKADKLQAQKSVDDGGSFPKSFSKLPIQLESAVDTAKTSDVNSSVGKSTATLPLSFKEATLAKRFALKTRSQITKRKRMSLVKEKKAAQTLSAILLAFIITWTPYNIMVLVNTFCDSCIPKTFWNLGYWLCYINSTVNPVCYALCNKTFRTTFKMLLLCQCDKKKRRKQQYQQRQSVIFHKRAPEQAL
Chain of human muscarinic receptor M3 (P20309 whole entry): as above

IC50 [1]: 0.165 ± 0.044 µM
IC50 at muscarinic receptors (in words) [2]: could not be calculated
Structure (SMILES): CCOCCn1c(C2CCN(CCc3ccc(C(C)(C)C(=O)O)cc3)CC2)nc2ccccc21 [bilastine]

Structure (SMILES): CN(C)CC/C=C1/c2ccccc2COc2ccc(CC(=O)O)cc21 [olopatadine]
tear volume compared with untreated group (C57BL6 mice; after 2 days of treatment): untreated group also had a statistically higher tear volume than the olopatadine group
overall effect on tear volume / tear secretion (conclusion) (C57BL6 mice): significant decrease in tear volume
IC50 [3]: 41.9 µM
IC50 [4]: 13.1 µM
IC50 [5]: 1.74 µM
IC50 [6]: 7.98 µM
IC50 [7]: 7.67 µM
inhibition of muscarinic receptor signaling (in words) [2]: inhibited muscarinic receptor signaling in a dose-dependent manner
IC50 [8]: 10.7 µM

Structure (SMILES): O=C(O)COCCN1CCN(C(c2ccccc2)c2ccc(Cl)cc2)CC1 (stereo not shown) [cetirizine]
signs and symptoms associated with ocular dryness (healthy individuals): induced signs and symptoms associated with ocular dryness
IC50 at muscarinic receptors (in words) [2]: could not be calculated

IC50 [3]: 10.2 µM
IC50 [4]: 8.11 µM
IC50 [6]: 16.8 µM
IC50 [8]: 3.26 µM
Structure (SMILES): CN1CCCC(n2nc(Cc3ccc(Cl)cc3)c3ccccc3c2=O)CC1 (stereo not shown) [azelastine]
inhibition of muscarinic receptor signaling (in words) [2]: inhibited muscarinic receptor signaling in a dose-dependent manner

IC50 [4]: 0.561 µM
IC50 [7]: 0.209 µM
IC50 [8]: 0.138 µM
Structure (SMILES): CN1CCC(=C2c3ccccc3CC(=O)c3sccc32)CC1 [ketotifen]

Structure (SMILES): CCOC(=O)N1CCC(=C2c3ccc(Cl)cc3CCc3cccnc32)CC1 [loratadine]
signs and symptoms associated with ocular dryness (healthy individuals): induced signs and symptoms associated with ocular dryness
corneal and conjunctival staining, increase (human subjects): 22%
mean TFBUT (tear film break-up time), decrease (human subjects): 22%
tear flow, decrease (human subjects): 35%
tear volume, decrease (human subjects): 34%

Structure (SMILES): NC1=NCC2c3ccccc3Cc3ccccc3N12 (stereo not shown) [epinastine, 3-amino-9,13b-dihydro-1H-dibenz[c,f]-imidazo[5,1-a]azepine]
redness and itching associated with allergic conjunctivitis (allergic conjunctivitis): reduces redness and itching
mean tear volume compared with olopatadine-treated group (C57BL6 mice; after 2 days of treatment, 1 μL twice a day on ocular surface, 15, 45, 90 and 240 minutes, significant at 45 min (P<0.001)): higher mean tear volumes
tear volume compared with untreated group (C57BL6 mice; after 2 days of treatment): increased production of tears over the untreated group, but the difference was not statistically significant
tear volume compared with olopatadine (C57BL6 mice; after 4 days of treatment, significant at 45 min (p<0.05)): volumes were higher at all time points
overall effect on tear volume / tear secretion (conclusion) (C57BL6 mice): not found to inhibit tear secretion, but rather increased tear production
Frequency of rewetting drop use, mean change from baseline [9, 10]: −0.55
Total contact lens wear, mean change from baseline [9, 10]: 0.35 h
Comfortable contact lens wear, mean change from baseline ([9]; average during treatment period (5-7 days)): 1.33 h
average use of rewetting drops over the entire treatment period ([9]; in vivo): 2.79 uses per day
mean overall eye comfort over the entire treatment period ([9]; score 0-4 (0=very comfortable, 4=very uncomfortable)): 1.43
Overall eye comfort, mean change from baseline ([9]; score 0-4 (0=very comfortable, 4=very uncomfortable), average during treatment period): −0.48
average ocular itch score over the entire treatment period ([9]; score on a scale of 0-4): 1.11
Ocular itch, mean change from baseline ([9]; score on a scale of 0-4, average during treatment period): −0.54
average total wearing time over the treatment period ([9]; treatment period 5-7 days): 13.22 h
comfortable wear time averaged over the treatment period ([9]; treatment period 5-7 days): 9.21 h
IC50 [1]: 0.019 ± 0.003 µM
IC50 at muscarinic receptors (in words) [2]: could not be calculated
